# Data: patent US8779146B2, “Cilostazol cocrystals and compositions” (Nuformix Limited, priority 2010, dated 2014)
# Read-outs that look alike come from different tables or passages of the source.
# How the values were obtained:
# [1] = Gravimetric vapour sorption (GVS) moisture sorption isotherm; format: physicochemical; settings: for moisture reversibly adsorbed: across the 0-90% relative humidity range at 25° C. under nitrogen; for solid form by XRPD analysis after completion of the isotherm: after GVS cycle 0-90% RH; for solid form by XRPD analysis after completion of the isotherm / hygroscopicity: 25° C.; for hygroscopicity: conclusion from GVS isotherm, 0-90% RH
# Experimental: Sorption isotherms were obtained using a SMS DVS Intrinsic moisture sorption analyser, controlled by DVS Intrinsic Control software v1.0.0.30. The sample temperature was maintained at 25° C. by the instrument controls. The humidity was controlled by mixing streams of dry and wet nitrogen, with a total flow rate of 200 ml·min^−1 The relative humidity was measured by a calibrated Rotronic probe (dynamic range of 1.0-100% RH), located near the sample. The weight change, (mass relaxation) of the sample as a function of % RH was constantly monitored by the microbalance (accuracy ±0.005 mg).
# Typically 5-20 mg of sample was placed in a tared mesh stainless steel basket under ambient conditions. The sample was loaded and unloaded at 40% RH and 25° C. (typical room conditions). A moisture sorption isotherm was performed as outlined in Table 1 (2 scans giving 1 complete cycle). The standard isotherm was performed at 25° C. at 10% RH intervals over a 0.5-90% RH range. Data analysis was undertaken in Microsoft Excel using DVS Analysis Suite v6.0.0.7. The sample was recovered after completion of the isotherm and re-analyzed by XRPD.
# [2] = dog, in vivo, po, 100 mg
# Experimental: (§1) A crossover study was carried out using 5 male beagle dogs with a washout period of 5 days between each treatment. Prior to dosing, the dogs were fasted overnight. The capsules were accurately filled with the amount of cilostazol or the corresponding cocrystal that was equivalent to 100 mg cilostazol. The capsules were orally administered to the dogs followed by about 10 mL of water. Food (about 250 g) was provided 4 hours post-dose to all animals.
# (§2) Blood samples were collected at pre-dose, 15 and 30 minutes, and 1, 2, 3, 4, 6, 8, 10, 12 and 24 hour post-dose (12 time points) following oral dose administration. Approximately 0.8 ml of whole blood was withdrawn from the cephalic vein and placed in labelled tubes containing sodium heparin as anticoagulant (20 μL of 400 IU/mL sodium heparin solution per mL of blood). Plasma was separated by centrifuging the whole blood at about 2500 g for 10 minutes at 4° C. Separated plasma was stored below −70° C. until analysis.
# (§3) A fit for purpose LC-MS/MS method was used for the determination of the cilostazol concentrations in the plasma samples. Pharmacokinetic parameters from individual samples were calculated using the non-compartmental analysis tool of the WinNonlin® software (version 5.2). The area under the plasma concentration curve (AUC) was calculated using the linear trapezoidal rule. Peak plasma concentration (Cmax) and the time taken to reach the peak plasma concentration (Tmax) were the observed values.
# [3] = low solubility, high permeability drug; cited from earlier work
# [4] = Pharmacokinetic study, oral capsule, crossover, fasted beagle dogs; settings: male, dog, plasma, 100 mg
# Experimental: as §1, §2, §3
# [5] = cited from earlier work
SMILES,moisture reversibly adsorbed [1] [% w/w],solid form by XRPD analysis after completion of the isotherm [1],hygroscopicity [1],AUC [2] [ng·h/mL],Cmax [2] [ng/mL],Tmax [2] [h],BCS class [3],AUC [4] [ng·h/mL],Cmax [4] [ng/mL],Tmax [4] [h],solubility ([5]; in 0.1N HCl),solubility ([5]; in 0.1N NaOH),solubility ([5]; in ethanol),solubility ([5]; in methanol),solubility ([5]; in water)
O.O=C(O)c1cc(O)ccc1O.O=C1CCc2cc(OCCCCc3nnnn3C3CCCCC3)ccc2N1,0.1,unchanged,not hygroscopic,,,,,,,,,,,,
O=C(O)c1cc(O)ccc1O.O=C1CCc2cc(OCCCCc3nnnn3C3CCCCC3)ccc2N1 [1:1 cilostazol gentisic acid cocrystal],< 0.3,unchanged,not hygroscopic,1216.37,471.42,1.00,,,,,,,,,
"O=C1CCc2cc(OCCCCc3nnnn3C3CCCCC3)ccc2N1 [Cilostazol, 6-[4-(1-cyclohexyl-1H-tetrazol-5-yl)butoxy]-3,4-dihydro-2(1H)-quinolinone]",,,,,,,Class II,371,81.5,2,practically insoluble,practically insoluble,slightly soluble,slightly soluble,practically insoluble
